# Test results taken from patent US7468392B1, “Anti-fatigue cyclohexenone compounds from antrodia camphorata” (Golden Biotechnology Corporation, priority 2007, dated 2008).
# Entries after “also recorded” stand apart in the source; their conditions may differ.
# Columns and labels:
# Type in all cases: in vivo, human
# healthy male volunteers [1] = experiment: Creatine phosphate kinase (CPK) activity in plasma before/after exhaustive exercise at 80% VO2max; details: for creatine phosphate kinase levels: plasma, Mean, n = 15
# Procedure: (§1) The present invention is based on supplementing cyclohexenone of Antrodia camphorata or placebo with no cyclohexenone of Antrodia camphorata to the subjects. The subjects were tested for the anti-fatigue function after supplementing cyclohexenone of Antrodia camphorata by measuring the amounts of fatigue indexes such as CPK, lactic acid, glucose, ammonia and free fatty acid before and after exhaustive exercise load at 80% VO2max.
# (§2) Subjects were randomized to receive either cyclohexenone of Antrodia camphorata or placebo. Placebo contained substances such as cornstarch but no cyclohexenone of Antrodia camphorata. A double-blind, cross-over method was performed in this study where neither the evaluator nor the subject knew the content of the test substances. Based on rules of order balance, each subject have to receive the following tests: relaxing and receiving placebo (PR), exercising and receiving placebo (PE), relaxing and receiving cyclohexenone of Antrodia camphorata (DR), and exercising and receiving cyclohexenone of Antrodia camphorata (DE). Each test was carried out for one week, and took one week off before the next test until all 4 tests were performed in each subject. The exercise was performed on a treadmill with the load intensity at the measured 80% VO2max (7.61±1.87) until exhausted. Subjects received cyclohexenone of Antrodia camphorata or placebo after exercise in the amount of 0.2 g/kg body weight per day. […] Blood was collected in anticoagulant (such as EDTA) containing collection tubes, and was centrifuged at 3000 g. for 10 min to collect the plasma. The fatigue indexes such as CPK, lactic acid, glucose, ammonia and free fatty acid were analyzed accordingly. The physiological and biochemical changes before and after exercise with different supplements were compared and shown as values of mean and standard error (Mean±SEM). […] The details for the biochemical analysis and results are described below:
# The measurement of creatine phosphate kinase was performed with an automated blood analyzer Johnson & Johnson DT-60II based on enzyme function and spectrophotometric theory. Creatine phosphate […] was added into a defined amount of plasma to react, followed by addition of 4-aminoantipyrine and 1,7-dihydroxynaphthalene. A […] product was formed through peroxidase function. The absorbance at 680 nm was measured to obtain the concentration of creatine kinase.
# healthy male volunteers [2] = experiment: Blood glucose before meals, before/after exhaustive exercise at 80% VO2max; details: for blood glucose levels: plasma, Mean, n = 15; for effect of supplementation on blood glucose metabolism before meals: exhaustive exercise at 80% VO2max, versus placebo
# Procedure: as §1, §2
# The measurement of blood glucose was performed with an automated blood analyzer Johnson & Johnson DT-600 II based on enzyme function and spectrophotometric method. Glucose oxidase was added into a defined amount of plasma for reaction, followed by addition of 4-aminoantipyrine and 1,7-dihydroxyphthalene. A red product was formed through function of peroxidase. The reactions are shown below:
# The absorbance at 555 nm was measured to obtain the concentration of blood glucose.
# healthy male volunteers [3] = experiment: Lactate levels in blood before/after exhaustive exercise at 80% VO2max; details: plasma, Mean, n = 15
# Procedure: as §1, §2
# The measurement of blood lactate was performed with an automated blood analyzer using dry chemistry method (Johnson & Johnson DT-60II) based on enzyme function and spectrophotometric theory. Lactate oxidase was added into a defined amount of plasma for reaction, followed by addition of 4-aminoantipyrine and 1,7-dihydroxynaphthalene. A red product was formed through activities of peroxidase. The reactions are shown below:
# The absorbance at 540 nm was measured to obtain the concentration of blood lactate.
# [4] = Relax (DR), Post-exercise 0.5 h
# [5] = Relax (DR), Post-exercise 120 h
# [6] = Relax (DR), Post-exercise 168 h
# [7] = exercise (DE), Post-exercise 0 h
# [8] = exercise (DE), Post-exercise 0.5 h
# [9] = exercise (DE), Post-exercise 1 h
# [10] = exercise (DE), Post-exercise 2 h
# [11] = exercise (DE), Post-exercise 24 h
# [12] = exercise (DE), Post-exercise 48 h
# [13] = exercise (DE), Post-exercise 72 h
# [14] = exercise (DE), Post-exercise 120 h
# [15] = exercise (DE), Post-exercise 168 h
# [16] = exercise (DE), Prior to exercise
smiles,measurement,setting,value
"COC1=C(OC)C(O)C(C/C=C(\C)CC/C=C(\C)CCC=C(C)C)C(C)C1=O (centres unmarked) [cyclohexenone, 4-hydroxy-2,3-dimethoxy-6-methyl-5(3,7,11-trimethyl-dodeca-2,6,10-trienyl)-cyclohex-2-enone]",creatine phosphate kinase levels,"healthy male volunteers [1]; Relax (DR), Post-exercise 0 h",150.20 U/L
same,creatine phosphate kinase levels,healthy male volunteers [1]; [4],166.53 U/L
same,creatine phosphate kinase levels,"healthy male volunteers [1]; Relax (DR), Post-exercise 1 h",167.40 U/L
same,creatine phosphate kinase levels,"healthy male volunteers [1]; Relax (DR), Post-exercise 2 h",146.33 U/L
same,creatine phosphate kinase levels,"healthy male volunteers [1]; Relax (DR), Post-exercise 24 h",158.47 U/L
same,creatine phosphate kinase levels,"healthy male volunteers [1]; Relax (DR), Post-exercise 48 h",133.87 U/L
same,creatine phosphate kinase levels,"healthy male volunteers [1]; Relax (DR), Post-exercise 72 h",165.73 U/L
same,creatine phosphate kinase levels,healthy male volunteers [1]; [5],243.00 U/L
same,creatine phosphate kinase levels,healthy male volunteers [1]; [6],183.27 U/L
same,creatine phosphate kinase levels,"healthy male volunteers [1]; Relax (DR), Prior to exercise",167.27 U/L
same,creatine phosphate kinase levels,healthy male volunteers [1]; [7],259.57 U/L
same,creatine phosphate kinase levels,healthy male volunteers [1]; [8],221.86 U/L
same,creatine phosphate kinase levels,healthy male volunteers [1]; [9],232.93 U/L
same,creatine phosphate kinase levels,healthy male volunteers [1]; [10],208.07 U/L
same,creatine phosphate kinase levels,healthy male volunteers [1]; [11],332.50 U/L
same,creatine phosphate kinase levels,healthy male volunteers [1]; [12],244.00 U/L
same,creatine phosphate kinase levels,healthy male volunteers [1]; [13],193.86 U/L
same,creatine phosphate kinase levels,healthy male volunteers [1]; [14],193.86 U/L
same,creatine phosphate kinase levels,healthy male volunteers [1]; [15],204.83 U/L
same,creatine phosphate kinase levels,healthy male volunteers [1]; [16],226.64 U/L
same,effect of supplementation after exercise on creatine phosphate kinase levels,"healthy male volunteers [1]; exhaustive exercise at 80% VO2max, 0.2 g/kg body weight per day, versus placebo, listed as cyclohexenone from Antrodia camphorata",effectively decreases the muscular injury marker of creatine phosphate kinase levels; also recorded: significant effect (p<0.05) in metabolism of creatine phosphate kinase
same,blood glucose levels,"healthy male volunteers [2]; Relax (DR), Post-exercise 0 h",91.93 mg/dL
same,blood glucose levels,healthy male volunteers [2]; [4],93.33 mg/dL
same,blood glucose levels,"healthy male volunteers [2]; Relax (DR), Post-exercise 1 h",95.53 mg/dL
same,blood glucose levels,"healthy male volunteers [2]; Relax (DR), Post-exercise 2 h",103.20 mg/dL
same,blood glucose levels,"healthy male volunteers [2]; Relax (DR), Post-exercise 24 h",90.00 mg/dL
same,blood glucose levels,"healthy male volunteers [2]; Relax (DR), Post-exercise 48 h",90.40 mg/dL
same,blood glucose levels,"healthy male volunteers [2]; Relax (DR), Post-exercise 72 h",93.40 mg/dL
same,blood glucose levels,healthy male volunteers [2]; [5],94.00 mg/dL
same,blood glucose levels,healthy male volunteers [2]; [6],92.20 mg/dL
same,blood glucose levels,"healthy male volunteers [2]; Relax (DR), Prior to exercise",91.73 mg/dL
same,blood glucose levels,healthy male volunteers [2]; [7],103.43 mg/dL
same,blood glucose levels,healthy male volunteers [2]; [8],88.71 mg/dL
same,blood glucose levels,healthy male volunteers [2]; [9],93.86 mg/dL
same,blood glucose levels,healthy male volunteers [2]; [10],101.07 mg/dL
same,blood glucose levels,healthy male volunteers [2]; [11],94.43 mg/dL
same,blood glucose levels,healthy male volunteers [2]; [12],89.21 mg/dL
same,blood glucose levels,healthy male volunteers [2]; [13],93.00 mg/dL
same,blood glucose levels,healthy male volunteers [2]; [14],93.29 mg/dL
same,blood glucose levels,healthy male volunteers [2]; [15],92.93 mg/dL
same,blood glucose levels,healthy male volunteers [2]; [16],89.21 mg/dL
same,effect of supplementation on blood glucose metabolism before meals,healthy male volunteers [2]; listed as cyclohexenone from Antrodia camphorata,no effect
same,effect of supplementation on blood glucose metabolism before meals,healthy male volunteers [2]; listed as cyclohexenone of Antrodia camphorata,no significant difference
same,blood lactate levels,"healthy male volunteers [3]; Relax (DR), Post-exercise 0 h",2.39 mmol/L
same,blood lactate levels,healthy male volunteers [3]; [4],2.25 mmol/L
same,blood lactate levels,"healthy male volunteers [3]; Relax (DR), Post-exercise 1 h",3.00 mmol/L
same,blood lactate levels,"healthy male volunteers [3]; Relax (DR), Post-exercise 2 h",2.52 mmol/L
same,blood lactate levels,"healthy male volunteers [3]; Relax (DR), Post-exercise 24 h",2.26 mmol/L
same,blood lactate levels,"healthy male volunteers [3]; Relax (DR), Post-exercise 48 h",2.71 mmol/L
same,blood lactate levels,"healthy male volunteers [3]; Relax (DR), Post-exercise 72 h",2.22 mmol/L
same,blood lactate levels,healthy male volunteers [3]; [5],2.41 mmol/L
same,blood lactate levels,healthy male volunteers [3]; [6],2.41 mmol/L
same,blood lactate levels,"healthy male volunteers [3]; Relax (DR), Prior to exercise",2.54 mmol/L
same,blood lactate levels,healthy male volunteers [3]; [7],7.07 mmol/L
same,blood lactate levels,healthy male volunteers [3]; [8],3.20 mmol/L
same,blood lactate levels,healthy male volunteers [3]; [9],2.96 mmol/L
